Results as given in patent US11235074B2, “Contrast agents for magnetic resonance imaging” (Duke University, priority 2015, dated 2022).
Read-outs that look alike come from different tables or passages of the source.

Assays:
[1] = In vitro phantom quantitative T2 mapping (spin-spin relaxation MRI contrast) at 7 T
Method: Data are provided from quantitative T2 mapping at 7 T using a RARE FSE protocol with at least 6 different echo times, at solute concentrations of 10 and 20 mM.

[2] = cited from earlier work
[3] = cited from earlier work; remark: listed apart in the source
[4] = cited from earlier work; remark: listed apart in the source
[5] = test system: brain of normal C57 black mouse; assay: In vivo ascorbate T2 contrast changes in normal mouse brain; conditions: 2 g/kg i.v., normal C57 mice, FIG. 9B
Method: Color-lute maps of signal intensity are not subtracted from the pre-dose scan and therefore show the expected decreases in T2 signal over time, maximized between 30-60 min in normal C57 mice.

[6] = test system: whole brains of guinea pigs; assay: T2 contrast changes in guinea pig brain after i.v. ascorbate formulations, 7 T; type: in vivo; conditions: 2 g/kg i.v. over 60 minutes, nearly every time point
Method: MRI was performed for 90 minutes.

Molecule | change in T2 relaxation ([1]; 10 mM ascorbate with physiological glucose (5 mM) or HCO3- (25 mM), FIG. 5) | pH at which T2 effect is maximized ([1]; FIG. 3C) | lowest concentration with statistically significant negative T2 contrast (signal loss) ([1]; vs phosphate-buffered saline control, conventional FSE acquisition, FIG. 3A) | pKA ([2]; disproportionation reaction at equilibrium) | pKA ([2]; hydroxyl group at the 4 position) | fraction present as the mono anion ([2]; physiological pH (7.4)) | plasma concentration achievable ([3]; administered intravenously) | plasma concentration ([3]; oral ascorbate, doses more than 100 times the recommended daily allowance) | excretion half-life ([3]; urinary excretion of concentrations over the renal re-absorption threshold) | H2O2 concentration in brain and tumors in vivo following parenteral ascorbate ([4]; brain and tumors) | intracellular concentration ([4]; tumors, brain cells and some other tissues) | time of maximal decrease in T2 signal [5] | T2 contrast effect (T2 relaxation in ms) relative to meglumine or ascorbate alone ([1]; water, neutral pH, FIG. 3D) | FSE T2 weighted signal intensity changes, comparison between formulations [6]
O=C1O[C@H]([C@@H](O)CO)C(O)=C1O [ascorbate, L-ascorbic acid] | 50% | 7.0-7.4 | 1 to 5 mM | 7.0 | 6.75 | 99% | ≥ 10000 µM | ≤ 200 µM | about 30 minutes | 100 to 200 µM | 10 to 30 mM | 30 to 60 min |  | 
meglumine ascorbate |  |  |  |  |  |  |  |  |  |  |  |  | approximately 4 times | greater than those observed with sodium ascorbate (1)
